Source: US7687643B2, “Process for preparing 3,3-dimethylindolines” (Amgen Inc., priority 2001, dated 2010)

Each compound was assayed on Human Umbilical Vein Endothelial cells (VEGF-stimulated) (assay: HUVEC proliferation assay, VEGF-stimulated). Settings: VEGF 50 ng/mL, 72 h, CyQuant, read-out: inhibited VEGF-stimulated HUVEC proliferation at a level.
Format: cell-based
Method: Human Umbilical Vein Endothelial cells are purchased from Clonetics, Inc., as cryopreserved cells harvested from a pool of donors. These cells, at passage 1, are thawed and expanded in EBM-2 complete medium, until passage 2 or 3. The cells are trypsinized, washed in DMEM+10% FBS+antibiotics, and spun at 1000 rpm for 10 min. Prior to centrifugation of the cells, a small amount is collected for a cell count. After centrifugation, the medium is discarded, and the cells are resuspended in the appropriate volume of DMEM+10% FBS+antibiotics to achieve a concentration of 3×10^5 cells/mL. Another cell count is performed to confirm the cell concentration. The cells are diluted to 3×10^4 cells/mL in DMEM+10% FBS+antibiotics, and 100 μL of cells are added to a 96-well plate. The cells are incubated at 37° C. for 22 h.
Prior to the completion of the incubation period, compound dilutions are prepared. Five-point, five-fold serial dilutions are prepared in DMSO, at concentrations 400-fold greater than the final concentrations desired. 2.5 μL of each compound dilution are diluted further in a total of 1 mL DMEM+10% FBS+antibiotics (400× dilution). Medium containing 0.25% DMSO is also prepared for the 0 μM compound sample. At the 22-hour timepoint, the medium is removed from the cells, and 100 μL of each compound dilution is added. The cells are incubated at 37° C. for 2-3 h.
During the compound pre-incubation period, the growth factors are diluted to the appropriate concentrations. Solutions of DMEM+10% FBS+antibiotics, containing either VEGF or bFGF at the following concentrations: 50, 10, 2, 0.4, 0.08, and 0 ng/mL are prepared. For the compound-treated cells, solutions of VEGF at 550 ng/mL or bFGF at 220 ng/mL for 50 ng/mL or 20 ng/mL final concentrations, respectively, are prepared since 10 μL of each will be added to the cells (110 μL final volume). At the appropriate time after adding the compounds, the growth factors are added. VEGF is added to one set of plates, while bFGF is added to another set of plates. For the growth factor control curves, the media on wells B4-G6 of plates 1 and 2 are replaced with media containing VEGF or bFGF at the varying concentrations (50-0 ng/mL). The cells are incubated at 37° C. for an additional 72 h.
At the completion of the 72 h incubation period, the medium is removed, and the cells are washed twice with PBS. After the second wash with PBS, the plates are tapped gently to remove excess PBS, and the cells are placed at −70° C. for at least 30 min. The cells are thawed and analyzed using the CyQuant fluorescent dye (Molecular Probes C-7026), following the manufacturer's recommendations. The plates are read on a Victor/Wallac 1420 workstation at 485 nm/530 nm (excitation/emission). Raw data are collected and analyzed using a 4-parameter fit equation in XLFit. IC50 values are then determined.

Compound	IC50
O=C(Nc1ccc(C(F)(F)C(F)(F)F)c(OCCN2CCCCC2)c1)c1cccnc1NCc1ccncc1 [Example 955, N-[4-Pentafluoroethyl-3-(2-piperidin-1-yl-ethoxy)-phenyl]-2-[(pyridin-4-ylmethyl)-amino]-nicotinamide]	< 50 nM
O=C(Nc1cc(CCCN2CCCCC2)cc(C(F)(F)F)c1)c1cccnc1NCc1ccncc1 [Example 963, N-[3-(3-Piperidin-1-yl-propyl)-5-trifluoromethyl-phenyl]-2-[(pyridin-4-ylmethyl)-amino]-nicotinamide]	< 50 nM
CN1CC(C)(C)c2ccc(NC(=O)c3cccnc3NCc3ccncc3)cc21 [Example 1184, 2-[(Pyridin-4-ylmethyl)-amino]-N-(1,3,3-trimethyl-2,3-dihydro-1H-indol-6-yl)-nicotinamide]	< 50 nM
CCN1CCC(C)(C)c2ccc(NC(=O)c3cccnc3NCc3ccncc3)cc21 [Example 1124, N-(1-Ethyl-4,4-dimethyl-1,2,3,4-tetrahydro-quinolin-7-yl)-2-[(pyridin-4-ylmethyl)-amino]-nicotinamide]	< 50 nM
CC(C)(C)c1ccc(NC(=O)c2cccnc2NCc2ccnc(Cl)c2)cc1 [Example 138, N-[4-(tert-Butyl)phenyl](2-{[(2-chloro(4-pyridyl))methyl]amino}(3-pyridyl))carboxamide]	< 50 nM
CS(=O)(=O)NCCOc1cc(NC(=O)c2cccnc2NCc2ccncc2)ccc1C(F)(F)F [Example 1032, N-(3-((2-((Methylsulfonyl)amino)ethyl)oxy)-4-(trifluoromethyl)phenyl)-2-((4-pyridinylmethyl)amino)-3-pyridinecarboxamide]	< 50 nM
O=C(Nc1ccc(C(F)(F)C(F)(F)F)c(OC[C@H](O)CN2CCCC2)c1)c1cccnc1NCc1ccncc1 [Example 951, (R) N-[3-(2-Hydroxy-3-pyrrolidin-1-yl-propoxy)-4-pentafluoroethyl-phenyl]-2-[(pyridin-4-ylmethyl)-amino]-nicotinamide]	< 50 nM
CNc1nccc(CNc2ncccc2C(=O)Nc2cc(OC[C@@H]3CCCN3C)cc(C(F)(F)F)c2)n1 [Example 1144, 2-[(2-Methylamino-pyrimidin-4-ylmethyl)-amino]-N-[3-(1-methyl-pyrrolidin-2-ylmethoxy)-5-trifluoromethyl-phenyl]-nicotinamide]	< 50 nM
O=C(Nc1cc(O)cc(C(F)(F)F)c1)c1cccnc1NCc1ccncc1 [Example 978, N-(3-Hydroxy-5-trifluoromethyl-phenyl)-2-[(pyridin-4-ylmethyl)-amino]-nicotinamide]	< 50 nM
COc1cc(CNc2ncccc2C(=O)Nc2ccc3c(c2)NC(=O)CC3(C)C)ccn1 [Example 1116, N-(4,4-Dimethyl-2-oxo-1,2,3,4-tetrahydro-quinolin-7-yl)-2-[(2-methoxy-pyridin-4-ylmethyl)-amino]-nicotinamide]	< 50 nM
COc1cc(CNc2ncccc2C(=O)Nc2ccc3c(c2)NCC3(C)C)ccn1 [Example 1000, N-(3,3-dimethyl-2,3-dihydro-1H-indol-6-yl)-2-[(2-methoxy-pyridin-4-ylmethyl)-amino]-nicotinamide]	< 50 nM
O=C(Nc1cccc(C(F)(F)F)c1)c1cccnc1NCc1ccncc1 [Example 82, 2-[(Pyridin-4-ylmethyl)-amino]-N-(3-trifluoromethyl-phenyl)-nicotinamide]	< 50 nM
CC(C)N1CCC[C@H]1COc1cc(NC(=O)c2cccnc2NCc2ccncc2)cc(C(F)(F)F)c1 [Example 1096, N-(3-((((2S)-1-(1-methylethyl)-2-pyrrolidinyl)methyl)oxy)-5-(trifluoromethyl)phenyl)-2-((4-pyridinylmethyl)amino)-3-pyridinecarboxamide]	< 50 nM
O=C(Nc1cccc(C(F)(F)F)c1)c1ccc(F)nc1NCc1ccncc1 [Example 156, {6-Fluoro-2-[(4-pyridylmethyl)amino](3-pyridyl)}-N-[3-(trifluoromethyl)phenyl]carboxamide]	< 50 nM
